EC50 data for 11 compounds are collected here from BindingDB's records for doi:10.7270/Q2B856KG (Vanderbilt Screening Center For Gpcrs, Ion Channels and …, 2010).

The EC50 is the concentration that produces a half-maximal response.

The target in the assay is Voltage-dependent T-type calcium channel subunit alpha-1H (Homo sapiens, UniProt O95180). Kind of assay: PubChem AID 489005.
Voltage-dependent T-type calcium channel subunit alpha-1H, sequence (O95180 whole entry): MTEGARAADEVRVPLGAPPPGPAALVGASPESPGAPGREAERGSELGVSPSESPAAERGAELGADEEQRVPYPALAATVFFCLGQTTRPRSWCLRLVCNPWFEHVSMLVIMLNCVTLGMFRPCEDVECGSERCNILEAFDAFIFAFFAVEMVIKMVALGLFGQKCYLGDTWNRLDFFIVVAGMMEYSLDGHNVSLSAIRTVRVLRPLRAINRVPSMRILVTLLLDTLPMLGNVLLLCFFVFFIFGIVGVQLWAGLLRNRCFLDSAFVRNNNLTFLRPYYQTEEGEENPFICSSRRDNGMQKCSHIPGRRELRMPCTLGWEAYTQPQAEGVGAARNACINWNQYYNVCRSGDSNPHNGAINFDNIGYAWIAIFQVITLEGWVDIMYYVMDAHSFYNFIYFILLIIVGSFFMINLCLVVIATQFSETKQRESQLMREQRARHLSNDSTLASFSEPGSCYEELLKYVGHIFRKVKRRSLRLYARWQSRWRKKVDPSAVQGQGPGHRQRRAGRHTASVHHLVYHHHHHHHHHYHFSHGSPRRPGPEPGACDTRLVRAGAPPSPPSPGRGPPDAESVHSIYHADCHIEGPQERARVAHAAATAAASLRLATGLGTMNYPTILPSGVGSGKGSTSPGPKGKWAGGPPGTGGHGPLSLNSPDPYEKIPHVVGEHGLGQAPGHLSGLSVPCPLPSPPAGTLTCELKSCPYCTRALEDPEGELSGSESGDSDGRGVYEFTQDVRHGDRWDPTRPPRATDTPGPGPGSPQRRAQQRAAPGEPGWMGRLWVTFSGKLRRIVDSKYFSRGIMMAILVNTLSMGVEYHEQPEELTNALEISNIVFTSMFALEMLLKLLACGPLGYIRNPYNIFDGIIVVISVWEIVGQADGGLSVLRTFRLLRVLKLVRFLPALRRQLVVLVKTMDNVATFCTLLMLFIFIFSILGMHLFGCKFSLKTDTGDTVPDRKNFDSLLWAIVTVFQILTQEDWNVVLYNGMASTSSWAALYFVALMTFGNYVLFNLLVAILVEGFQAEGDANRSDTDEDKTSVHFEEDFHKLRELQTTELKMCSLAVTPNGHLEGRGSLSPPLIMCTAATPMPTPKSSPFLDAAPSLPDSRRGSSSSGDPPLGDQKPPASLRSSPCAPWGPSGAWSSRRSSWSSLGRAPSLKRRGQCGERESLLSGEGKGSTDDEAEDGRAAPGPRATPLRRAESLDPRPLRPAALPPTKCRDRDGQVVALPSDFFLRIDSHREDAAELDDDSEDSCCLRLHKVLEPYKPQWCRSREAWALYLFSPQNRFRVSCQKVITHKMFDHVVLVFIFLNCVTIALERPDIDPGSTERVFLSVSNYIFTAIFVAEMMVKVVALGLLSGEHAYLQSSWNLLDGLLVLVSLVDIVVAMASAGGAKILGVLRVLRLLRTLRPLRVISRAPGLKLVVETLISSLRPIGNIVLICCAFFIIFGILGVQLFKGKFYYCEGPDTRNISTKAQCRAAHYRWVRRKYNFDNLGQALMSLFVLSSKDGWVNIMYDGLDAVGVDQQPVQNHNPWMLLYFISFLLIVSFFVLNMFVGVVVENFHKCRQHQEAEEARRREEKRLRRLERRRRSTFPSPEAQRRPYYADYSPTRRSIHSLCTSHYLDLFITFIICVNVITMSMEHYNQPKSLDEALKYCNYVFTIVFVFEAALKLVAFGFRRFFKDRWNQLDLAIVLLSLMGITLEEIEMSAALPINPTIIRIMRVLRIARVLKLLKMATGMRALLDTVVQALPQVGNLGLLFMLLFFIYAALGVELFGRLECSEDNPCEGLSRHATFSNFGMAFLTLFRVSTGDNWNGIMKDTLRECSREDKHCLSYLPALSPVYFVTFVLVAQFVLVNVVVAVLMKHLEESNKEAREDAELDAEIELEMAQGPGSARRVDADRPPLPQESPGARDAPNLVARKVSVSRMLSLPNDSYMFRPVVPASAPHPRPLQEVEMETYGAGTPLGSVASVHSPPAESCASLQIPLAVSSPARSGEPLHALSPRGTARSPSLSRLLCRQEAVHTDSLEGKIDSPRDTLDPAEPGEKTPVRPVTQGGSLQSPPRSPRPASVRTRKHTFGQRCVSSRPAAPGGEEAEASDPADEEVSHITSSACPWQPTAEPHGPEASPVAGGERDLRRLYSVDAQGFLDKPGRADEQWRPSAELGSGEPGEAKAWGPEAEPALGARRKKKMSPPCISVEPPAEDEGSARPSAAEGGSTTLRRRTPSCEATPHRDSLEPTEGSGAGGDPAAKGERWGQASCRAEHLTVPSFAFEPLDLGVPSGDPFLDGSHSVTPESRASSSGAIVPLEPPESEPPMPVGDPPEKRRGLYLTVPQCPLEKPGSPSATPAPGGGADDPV
Regarding `COc1cccc(N2CCN(c3cc(O)n(-c4ccc(Cl)c(Cl)c4)c3O)CC2)c1` [1-(3,4-dichlorophenyl)-3-[4-(3-methoxyphenyl)-1-piperazinyl]pyrrolidine-2,5-dione], the EC50 turned out to be 6.84 µM.
With `O=NC1c2cc(S(=O)(=O)N3CCCCC3)ccc2-c2ccc(S(=O)(=O)N3CCCCC3)cc21` [2,7-Bis-(piperidine-1-sulfonyl)-fluoren-9-one oxime] the figure was 12.3 µM.
Turning to `CC(CC(=O)c1ccncc1)=Nc1ccccc1O`, the concentration for a half-maximal effect (EC50) stood at 3.26 µM.
As for `O=NC(c1ccc(Cl)cc1Cl)c1ncc(C(F)(F)F)cc1Cl` (stereo unspecified) [MLS000540015], the EC50 is 2.11 µM.
With `Oc1cc(SCCc2nc3ccccc3[nH]2)c(O)n1-c1ccc(Cl)cc1` [SMR000199589] the figure was 613 µM; with `CC(C)CC(C(=O)C(C#N)c1nc2ccccc2[nH]1)N1C(=O)c2ccccc2C1=O` (stereo unspecified) [MLS000109709], 14.8 µM; with `CCCCCCC1=Cc2c/c(=C3/NN=C(c4ccccc4)O3)c(=O)oc2=CC1=O` [MLS000068623], 3 µM.
With `COc1ccc(C(C(=O)C(O)c2c[nH]c3ccccc23)N2CCN(c3ccccc3)CC2)cc1` (stereo unspecified) [MLS000053208] the figure was 8.16 µM; with `Cc1ccc(-c2csc(NC(=O)c3cccc(-n4c(O)ccc4O)c3)n2)o1` [SMR000018545], 3.78 µM; with `CCN(CC)S(=O)(=O)c1ccc2c(c1)C(N=O)c1cc(S(=O)(=O)N(CC)CC)ccc1-2` [N2,N2,N7,N7-tetraethyl-9-hydroxyimino-fluorene-2,7-disulfonamide], 1.6 µM.
`CC1CCN(S(=O)(=O)c2ccc(N=NC(C#N)C#N)cc2)CC1` [SMR000162322]: the EC50 stood at 1.52 µM.
